# Results: ChEMBL document CHEMBL4152339, “Design and synthesis of novel 1H-tetrazol-5-amine based potent antimicrobial agents: DNA topoisomerase IV and gyrase affinity evaluation supported by molecular docking studies” (Eur J Med Chem, 2018)
# Key:
# Pseudomonas aeruginosa [1] = experiment: Antibacterial activity against Pseudomonas aeruginosa ATCC 27853 after 18 hrs by CLSI disc diffusion method; assay type: functional; conditions: ATCC 27853, 18 h
# [2] = tested on: Staphylococcus epidermidis; experiment: Antibacterial activity against Staphylococcus epidermidis ATCC 35984 after 18 hrs by CLSI […] method; assay type: functional; conditions: ATCC 35984, 18 h
# Staphylococcus aureus [3] = experiment: Antibacterial activity against Staphylococcus aureus NCTC 4163 after 18 hrs by CLSI disc diffusion method; assay type: functional; conditions: NCTC 4163, 18 h
# Staphylococcus aureus [4] = experiment: Antibacterial activity against Staphylococcus aureus ATCC 25923 after 18 hrs by CLSI disc diffusion method; assay type: functional; conditions: ATCC 25923, 18 h
# Enterococcus faecalis = experiment: Antibacterial activity against Enterococcus faecalis ATCC 29212 after 18 hrs by CLSI disc diffusion method; assay type: functional; conditions: ATCC 29212, 18 h
# Micrococcus luteus [5] = experiment: Antibacterial activity against Micrococcus luteus ATCC 9341 after 18 hrs by CLSI disc diffusion method; assay type: functional; conditions: ATCC 9341, 18 h
# Escherichia coli = experiment: Antibacterial activity against Escherichia coli ATCC 10538 after 18 hrs by CLSI disc diffusion method; assay type: functional; conditions: ATCC 10538, 18 h
# Proteus vulgaris = experiment: Antibacterial activity against Proteus vulgaris NCTC 4635 after 18 hrs by CLSI disc diffusion method; assay type: functional; conditions: NCTC 4635, 18 h
# Micrococcus luteus [6] = experiment: Antibacterial activity against Micrococcus luteus ATCC 10240 after 18 hrs by CLSI disc diffusion method; assay type: functional; conditions: ATCC 10240, 18 h
# Bacillus cereus = experiment: Antibacterial activity against Bacillus cereus ATCC 11778 after 18 hrs by CLSI disc diffusion method; assay type: functional; conditions: ATCC 11778, 18 h
# [7] = tested on: Bordetella bronchiseptica; experiment: Antibacterial activity against Bordetella bronchiseptica ATCC 4617 after 18 hrs by CLSI disc diffusion method; assay type: functional; conditions: ATCC 4617, 18 h
# Enterococcus hirae = experiment: Antibacterial activity against Enterococcus hirae ATCC 10541 after 18 hrs by CLSI disc diffusion method; assay type: functional; conditions: ATCC 10541, 18 h
# [8] = tested on: Staphylococcus epidermidis; experiment: Antibacterial activity against Staphylococcus epidermidis ATCC 12228 after 18 hrs by CLSI disc diffusion method; assay type: functional; conditions: ATCC 12228, 18 h
# Staphylococcus aureus [9] = experiment: Antibacterial activity against Staphylococcus aureus ATCC 6538 after 18 hrs by CLSI disc diffusion method; assay type: functional; conditions: ATCC 6538, 18 h
# Pseudomonas aeruginosa [10] = experiment: Antibacterial activity against Pseudomonas aeruginosa ATCC 15442 after 18 hrs by CLSI disc diffusion method; assay type: functional; conditions: ATCC 15442, 18 h
# Bacillus spizizenii = experiment: Antibacterial activity against Bacillus subtilis ATCC 6633 after 18 hrs by CLSI disc diffusion method; assay type: functional; conditions: ATCC 6633, 18 h
# HaCaT = experiment: Cytotoxicity activity against human HaCaT cells assessed as reduction in cell viability after 72 hrs by MTT assay; assay type: cell-based
# [11] = Selectivity index, ratio of IC50 for human HaCaT cells to MIC for Enterococcus hirae ATCC 10541; assay type: toxicity; conditions: read-out: Selectivity Index
# [12] = Selectivity index, ratio of IC50 for human HaCaT cells to MIC for Bordetella bronchiseptica ATCC 4617; assay type: toxicity; conditions: read-out: Selectivity Index
# [13] = Selectivity index, ratio of IC50 for human HaCaT cells to MIC for Proteus vulgaris NCTC 4635; assay type: toxicity; conditions: read-out: Selectivity Index
# [14] = Selectivity index, ratio of IC50 for human HaCaT cells to MIC for Bacillus subtilis ATCC 6633; assay type: toxicity; conditions: read-out: Selectivity Index
# [15] = Selectivity index, ratio of IC50 for human HaCaT cells to MIC for Escherichia coli ATCC 10538; assay type: toxicity; conditions: read-out: Selectivity Index
# [16] = Selectivity index, ratio of IC50 for human HaCaT cells to MIC for Micrococcus luteus ATCC 10240; assay type: toxicity; conditions: read-out: Selectivity Index
# A549 = experiment: Cytotoxicity activity against human A549 cells assessed as reduction in cell viability after 72 hrs by MTT assay; assay type: cell-based; conditions: A549, 72 h
# [17] = Selectivity index, ratio of IC50 for human HaCaT cells to MIC for Staphylococcus aureus NCTC 4163; assay type: toxicity; conditions: read-out: Selectivity Index
Structure (SMILES),MIC (Pseudomonas aeruginosa [1]) [µM],MIC [2] [µM],MIC (Staphylococcus aureus [3]) [µM],MIC (Staphylococcus aureus [4]) [µM],MIC (Enterococcus faecalis) [µM],MIC (Micrococcus luteus [5]) [µM],MIC (Escherichia coli) [µM],MIC (Proteus vulgaris) [µM],MIC (Micrococcus luteus [6]) [µM],MIC (Bacillus cereus) [µM],MIC [7] [µM],MIC (Enterococcus hirae) [µM],MIC [8] [µM],MIC (Staphylococcus aureus [9]) [µM],MIC (Pseudomonas aeruginosa [10]) [µM],MIC (Bacillus spizizenii) [µM],IC50 (HaCaT) [µM],selectivity ratio [11],selectivity ratio [12],IC50 (A549) [µM],further results
CCn1nnnc1NCCc1c[nH]c2ccccc12,999,999,> 999,> 999,999,999,999,999,999,999,999,999,999,> 999,999,999,–,–,–,–,–
Clc1ccc(-n2nnnc2Nc2nccs2)cc1Cl,821,26,103,51,103,26,821,821,51,26,410,205,51,51,821,6,–,–,–,–,–
Fc1ccc(-n2nnnc2NCCc2c[nH]c3ccccc23)cc1,397,12,50,12,50,12,25,12,12,6,12,25,50,25,397,12,–,–,–,–,–
O=C(O)n1nnnc1NCCc1c[nH]c2ccccc12,471,15,59,15,59,15,29,15,15,7,29,29,29,15,471,15,–,–,–,–,–
Brc1ccc(-n2nnnc2Nn2cnnc2)cc1,834,13,52,52,52,26,52,13,26,26,209,52,26,52,834,26,65,1.25,0.31,62,selectivity ratio [13]: 5; selectivity ratio [14]: 2.5; selectivity ratio [15]: 1.25; selectivity ratio [16]: 2.5; selectivity ratio [17]: 1.25
COc1cccc2c1C(=O)c1c(O)c3c(c(O)c1C2=O)C[C@@](O)(C(=O)CO)C[C@@H]3O[C@H]1C[C@H](N)[C@H](O)[C@H](C)O1 [DOXORUBICIN],–,–,–,–,–,–,–,–,–,–,–,–,–,–,–,–,1.09,–,–,0.63,–

# Now from value to compound, other results behind:
MIC (Pseudomonas aeruginosa [1]) [µM],MIC [2] [µM],MIC (Staphylococcus aureus [3]) [µM],MIC (Staphylococcus aureus [4]) [µM],MIC (Enterococcus faecalis) [µM],MIC (Micrococcus luteus [5]) [µM],MIC (Escherichia coli) [µM],MIC (Proteus vulgaris) [µM],MIC (Micrococcus luteus [6]) [µM],MIC (Bacillus cereus) [µM],MIC [7] [µM],MIC (Enterococcus hirae) [µM],MIC [8] [µM],MIC (Staphylococcus aureus [9]) [µM],MIC (Pseudomonas aeruginosa [10]) [µM],MIC (Bacillus spizizenii) [µM],Structure (SMILES),IC50 (HaCaT) [µM],selectivity ratio [11],selectivity ratio [12],IC50 (A549) [µM],further results
> 914,14,14,29,114,57,57,57,57,29,> 914,29,29,14,914,57,Fc1ccc(-n2nnnc2Nn2cnnc2)cc1Cl,62,2.13,0.07,60,selectivity ratio [13]: 1.08; selectivity ratio [14]: 1.08; selectivity ratio [15]: 1.08; selectivity ratio [16]: 1.08; selectivity ratio [17]: 4.42
> 865,14,108,108,54,14,> 865,> 865,27,14,> 865,27,27,108,> 865,14,Fc1ccc(-n2nnnc2Nc2nccs2)cc1Cl,60,2.22,0.07,60,selectivity ratio [13]: 0.07; selectivity ratio [14]: 4.28; selectivity ratio [15]: 0.07; selectivity ratio [16]: 2.22; selectivity ratio [17]: 0.55
834,52,208,208,208,52,417,208,52,26,417,208,104,208,834,52,O=[N+]([O-])c1cc(-n2nnnc2Nc2nc[nH]n2)ccc1Cl,–,–,–,–,–
938,4,7,7,234,59,117,117,59,29,117,29,4,7,938,29,O=[N+]([O-])c1ccc(-n2nnnc2Nn2cnnc2)cc1,65,2.24,0.55,60,selectivity ratio [13]: 0.55; selectivity ratio [14]: 2.24; selectivity ratio [15]: 0.55; selectivity ratio [16]: 1.1; selectivity ratio [17]: 9.28
1040,16,65,65,8,2,16,8,2,65,130,65,33,33,1040,65,Fc1ccc(-n2nnnc2Nn2cnnc2)cc1,84,2.89,0.09,80,selectivity ratio [13]: 1.47; selectivity ratio [14]: 1.29; selectivity ratio [15]: 1.47; selectivity ratio [16]: 1.47; selectivity ratio [17]: 1.29
411,6,51,26,51,6,411,411,51,26,205,51,13,51,411,26,FC(F)(F)c1ccc(-n2nnnc2Nc2nccs2)cc1,80,1.56,0.39,76,selectivity ratio [13]: 0.19; selectivity ratio [14]: 3.07; selectivity ratio [15]: 0.19; selectivity ratio [16]: 1.56; selectivity ratio [17]: 1.56
